Results: patent US20220326255A1, “METHODS OF MONITORING MUCOSAL HEALING” (MediBeacon Inc., priority 2021, published 2022)

How the values were obtained:
[1] = Cumulative urinary percent recovery of enterally administered tracer, crossover study in healthy adults and adults with Crohn's disease; type: in vivo, human; details: for percent of administered dose recovered in urine: Crohn's disease patients
Procedure: (§1) A single center, randomized, open label, crossover study was performed to evaluate a solution containing 18.6 mg/mL of a pyrazine derived fluorophore (MB-102) at 1.5 or 3.0 mg/kg versus DSAT (L, 1000 mg and R, 200 mg) administered enterally.
(§2) To compare the dynamic ranges of the fluorophore and DSAT clearances, healthy adults and adults with evidence of small bowel Crohn's disease on magnetic resonance enterography were enrolled. Participants were randomized to receive either the fluorophore tracer or the sugars on treatment day 1, followed by the other tracer 3-7 days later. Urine was collected at baseline and 1, 2, 4, 6, 8, 10, and 12 hours after tracer ingestion. The cumulative urinary percent recovery of the fluorophore tracer was calculated using an Ultra-Performance Liquid Chromatography system with fluorescence detection and cumulative L, R, and L:R ratios using a normal phase, isocratic HPLC-tandem ESI mass spectrometry.

[2] = tested on: rat model of small bowel injury; test: Percent of administered dose of MB-102 recovered in urine, rat model of small bowel injury; type: in vivo; details: rats with bowel injury compared to controls; oral gavage
Procedure: (§3) To this end, MB-102 was tested in the rat model of small bowel injury (FIGS. 4A and 4B). Transdermal measurements were initiated prior to oral gavage of MB-102 and transdermal measurements, alongside urine, were collected over time. Based on urine samples the Percent of Administered Dose Recovered was higher in rats with bowel injury than controls (FIG. 4A).

[3] = MB-102 plasma concentration (HPLC) after oral dose in healthy and Crohn's disease participants; type: in vivo, human; details: for concentration at 360 min / concentration at 720 min: human, plasma, po
Procedure: In addition, two healthy participants and one participant with Crohn's disease were administered an oral dose of MB-102, and blood samples were collected at 6 and 12 hours post-administration. MB-102 plasma concentration levels were determined by HPLC.

[4] = Safety and tolerability of orally administered MB-102 in the human study; type: in vivo
Procedure: as §1, §2
5 healthy adults and 4 adults with Crohn's disease completed the study without serious adverse events. […] At 12 hours post-dose in the healthy participants, approximately 0.5% to 1.0% of the administered dose was recovered, reflecting the inability of MB-102 to transverse the intestinal barrier when gut permeability is normal. […]

[5] = tested on: rat model of bowel injury; test: Transdermal fluorescence detection of fluorophore after oral gavage, rat model of bowel injury; type: in vivo; details: monitored continuously
Excerpt: To probe the ability to assess gut function in a specimen-free and real-time manner, a dual-wavelength transdermal fluorescence detection system was utilized to monitor MB-301 and MB-404 in the rat model of bowel injury. […] Following anaesthetization, the fluorescence detection system was affixed with medical adhesive to a depilated area on the back of each rat. Transdermal fluorescence monitoring was then initiated to detect baseline fluorescence prior to delivery of MB-301 and MB-404 by oral gavage, and was monitored continuously. The concentration of MB-301 as determined by transdermal fluorescence measurements remained low in both injured and control animals (FIG. 2, dashed lines) as this fluorophore is comparatively rapidly absorbed by the small intestine and subsequently cleared. […] Therefore, transdermal detection of MB-301 and MB-404 fluorescence can be used to provide a non-invasive, real-time indication of gut health.
as §3

[6] = tested on: rat model of small bowel injury; test: Ratio of MB-404 to MB-301 in urine (HPLC) after oral gavage, rat model of small bowel injury; type: in vivo; details: injured rats (indomethacin-induced bowel injury) compared to control rats
Excerpt: DSAT was mimicked using two fluorophores with similar molecular weights to mannitol and lactulose, MB-301 and MB-404 (see Table 2).
Furthermore, like both sugars used in the DSAT, MB-301 and MB-404 are not metabolized and are excreted by glomerular filtration, with neither (or negligible) tubular secretion nor reabsorption. To test the ability to distinguish between healthy and diseased gut, a rat model of small bowel injury was used with two injured and two control rats. The day after indomethacin-induced bowel injury, the rats were anaesthetized, a catheter was inserted for urine collection, and both fluorophores were delivered by oral gavage. Urine was collected prior to oral gavage and at a series of time points post-gavage. Concentrations of MB-301 and MB-404 in urine were determined using HPLC, and the ratio of their concentrations was plotted over time in FIG. 1.

[7] = Control Participants, 360 min post-administration
[8] = Control Participants, 720 min post-administration

Structure (SMILES): OC[C@H]1O[C@@H](O[C@@H]2[C@@H](CO)OC(O)(CO)[C@H]2O)[C@H](O)[C@@H](O)[C@H]1O (mixture of isomers) [lactulose, reference compound]
- percent of administered dose recovered in urine [1]: wide range

Structure (SMILES): Nc1nc(C(=O)N[C@H](CO)C(=O)O)c(N)nc1C(=O)N[C@H](CO)C(=O)O [MB-102, 3,6-diamino-2,5-bis{N-[(1R)-1-carboxy-2-hydroxyethyl]carbamoyl}pyrazine]
- Percent of Administered Dose Recovered (urine) [2]: higher
- percent of administered dose recovered in urine [1]: wide range
- urine excretion ([1]; diseased participants with respect to controls, oral administration): increased
- MB-102 urine recovery ([1]; patients in remission when the study was performed): near normal values
- Plasma Concentration [3, 7]: 21.3 ng/mL
- Plasma Concentration [3, 8]: 16.7 ng/mL
- concentration at 360 min [3, 7]: 21.2 ng/mL
- concentration at 720 min [3, 8]: 16.8 ng/mL
- concentration at 360 min ([3]; Crohn's Disease Participant, 360 min post-administration): 63.1 ng/mL
- concentration at 720 min ([3]; Crohn's Disease Participant, 720 min post-administration): 26.5 ng/mL
- serious adverse events ([4]; 5 healthy adults and 4 adults with Crohn's disease): no serious adverse events
- tolerability ([4]; healthy adults and adults with Crohn's disease): well tolerated

Structure (SMILES): Nc1nc(C(=O)O)c(N)nc1C(=O)O [MB-301, 3,6-diamino-2,5-pyrazine-dicarboxylic acid]
- concentration as determined by transdermal fluorescence measurements ([5]; control animals): remained low
- concentration as determined by transdermal fluorescence measurements ([5]; injured animals): remained low

Structure (SMILES): O=C(NCC(O)CO)c1nc(NC[C@H](O)CO)c(C(=O)NCC(O)CO)nc1NC[C@H](O)CO (stereo partly drawn) [MB-404, N^2,N^5-bis(2,3-dihydroxypropyl)-3,6-bis[(S)-2,3-dihydroxypropylamino]pyrazine-2,5-dicarboxamide]
- ratio of MB-404 to MB-301 in urine [6]: higher
- concentration as determined by transdermal fluorescence measurements ([5]; control animals): remained low
- concentration as determined by transdermal fluorescence measurements ([5]; injured animals): increased over time
